“Also recorded” adds a separate entry of the source.
Test system: bacteria, fungi, and/or yeasts
Assay type: binding
Details: microorganism(s) listed as target(s) of the targeting peptide; wrapped target lists given cell by cell

Substance	Target(s)
PF-147 (RRPRRRRSGHGQSASAA)	S. epidermidis, M. luteus, MRSA
PF-149 (GKVSVLTRVPRSLGGAPANQ)	S. epidermidis, M. luteus, E. coli,; also recorded: MRSA, C. jeikeium
PF-150 (EIQAKGTG)	S. epidermidis, MRSA
PF-151 (EEYPARVPLSGEDVTEARRH)	S. epidermidis, MRSA, E. faecalis,; also recorded: C. jeikeium
PF-152 (VGYFIWKDSHSRKG)	S. epidermidis, C. albicans,; also recorded: MRSA, E. faecalis, C. jeikeium
PF-153 (GILARADCSQIA)	M. luteus, P. mirabilis, E. coli, and MRSA
PF-154 (GIKKSKHPSTDDYVVKTTIDSL)	S. mutans
PF-155 (GRYGDDSKERQGRAQ)	C. jeikeium
PF-156 (LITAEQPATAPIAGK)	S. epidermidis, C. jeikeium
PF-157 (HTAVVWLAGVSGCVALSHCEPA)	S. epidermidis, M. luteus, P. mirabilis,; also recorded: E. coli, P. aeruginosa,; also recorded: C. albicans, MRSA, S. pneumoniae,; also recorded: E. faecalis, C. jeikeium,; also recorded: C. jejuni
PF-158 (VRLESRPADLPE)	S. epidermidis
PF-159 (TMAFVEKAQLRVPVGDDLPV)	S. epidermidis
PF-160 (SFHASLTKNEKPIKSTG)	S. epidermidis
PF-161 (RGRALASTATTRPARRRR)	S. epidermidis, M. luteus, E. coli,; also recorded: C. jejuni
PF-162 (GIRRLHSVENLNREISHRMAGLR)	S. epidermidis, MRSA
PF-163 (TSWLRAAERQEIGEPTKTFGEKTTSL)	S. epidermidis

Substance	Target(s)
PF-164 (EEVSRALAGIGLGLGCRIG)	S. epidermidis, M. luteus, E. coli,; also recorded: C. jeikeium
PF-165 (GPVSVVASLRRGTTVQRHSQNNHNKGKP)	MRSA, C. jejuni
PF-166 (SKAVSRKRSI)	E. coli, C. jeikeium
PF-169 (APGSAADSPRSRADD)	S. epidermidis, E. coli, C. albicans,; also recorded: E. faecalis, C. jeikeium
PF-171 (TQVTLCRTW)	S. epidermidis, E. coli, P. aeruginosa,; also recorded: S. pneumoniae
PF-172 (LTGVRRPWRAPWAGTSGWALR)	S. epidermidis, M. luteus, E. coli,; also recorded: P. aeruginosa, MRSA, E. faecalis,; also recorded: C. jejuni
PF-173 (AGRTAIVQGGG)	S. epidermidis, M. luteus, P. mirabilis,; also recorded: E. coli, P. aeruginosa,; also recorded: C. albicans, C. jeikeium, C. jejuni
PF-174 (RGGDSPARRRPGLAGPGGPG)	S. epidermidis, P. aeruginosa, C. jeikeium
PF-543	C. albicans hyphae
PF-617 (PMNAAEPE)	yeast and hyphal forms
PF-621 (PPSSFLV)	yeast and hyphal forms
PF-629 (GLAAIATVFALY)	yeast and hyphal forms
PF-631 (LIIYFSKTGNTARATRQI)	yeast and hyphal forms
PF-634 (MPKARPVNHNKKKSKITIKSNFTLFYMFNP)	C. albicans hyphae
PF-636 (LVRLA)	C. albicans hyphae

Same assay, conditions: microorganism(s) that the targeting peptide binds, as listed in Table 2

Substance	Target(s)
PF-784 (MAMTTVDNIVGLVIAVALMAFLFAALLFPEKF)	Mycobacteria spp.
PF-785 (MRPQHSPAGKAFVVKKITHEQS)	Mycobacteria spp.
PF-786 (LSERERRRLKRGII)	Mycobacteria spp.
PF-787 (MTERQRRALLKQHPEVVSWSDYLEKRKRRTGTAG)	Mycobacteria spp.
PF-788 (GLITVFAGTARILQLRRAAKKTHAAALR)	Mycobacteria spp.
PF-789 (PRGAQSGHG)	Mycobacteria spp.
PF-790 (PAGPDHLDQRDHR)	Mycobacteria spp.
PF-791 (IFLTTQNTDYSEHNAA)	S. mutans
PF-792 (ALHASGIQAI)	S. mutans
PF-794 (NLYFENQGN)	S. mutans
PF-795 (ALHKSGIQVIADWVPDQIYN)	S. mutans
PF-796 (YTQSNIPTAYALMLSNKDSI)	S. mutans
PF-797 (WYYFDNNGYM)	S. mutans
PF-798 (ALHSKGIKVMADWVPDQMYA)	S. mutans
PF-799 (YTHYNTALSYALLLTNKSSVP)	S. mutans
PF-800 (WYYFDNNGYM)	S. mutans
PF-C003 (FCSVDHDVITIAADHVKQGAEA)	A. naeslundii, P. gingivalis, S. mutans

Substance	Target(s)
PF-C008 (AQPRRTWLVNFGEVPSPGLTNDGMPDH)	A. naeslundii
PF-C034 (HPMPITVRSRKPGPLTAPSEH)	S. mutans, E. coli
PF-C045 (FREGMGWPLSNEGSPTAPLPKHRNQV)	A. naeslundii, T. denticola
PF-C050 (QGLARPVLRRIPL)	A. naeslundii, S. mutans
PF-C052 (SRFRNGV)	A. naeslundii, F. nucleatum, S. mutans
PF-C055 (YNLSIYIYFLHTITIAGLITLPFII)	A. naeslundii, F. nucleatum, P. gingivalis,; also recorded: S. mutans
PF-C057 (YFWWYWVQDCIPYKNNEVWLELSNNMK)	A. naeslundii, F. nucleatum, P. gingivalis,; also recorded: S. mutans
PF-C058 (FETGFGDGYYMSLWGLNEKDEVCKVVIPFINPELID)	A. naeslundii, F. nucleatum, P. gingivalis,; also recorded: S. mutans
PF-C061 (TLNYKKMFFSVIFLLGLNYLICNSPLFFKQIEF)	A. naeslundii, F. nucleatum, P. gingivalis,; also recorded: S. mutans, T. denticola
PF-C062 (PLARATEVVATLFIICSLLLYLTR)	A. naeslundii, F. nucleatum, P. gingivalis,; also recorded: S. mutans, T. denticola
PF-C063 (SHFRKGD)	A. naeslundii, F. nucleatum, S. mutans
PF-C064 (DEEALEMGANLYAQFAIDFLNSKK)	A. naeslundii, F. nucleatum, P. gingivalis,; also recorded: S. mutans, T. denticola
PF-C065 (DEERYSDSYFLKEKVFYLILALFLILFHQKYLYFLEIITI)	A. naeslundii, F. nucleatum, P. gingivalis,; also recorded: S. mutans
PF-C068 (LNLFASI)	A. naeslundii, F. nucleatum, S. mutans
PF-C069 (NALMLREMQLAKNIKVEVTDVLSNKKYC)	A. naeslundii, F. nucleatum, P. gingivalis,; also recorded: S. mutans, T. denticola
PF-C071 (QVIVKIL)	A. naeslundii, F. nucleatum, S. mutans
PF-C072 (KKMFSLIRKVNWIFFILFIVLDLTNVFPLIRTILFAILSRQ)	A. naeslundii, F. nucleatum, P. gingivalis,; also recorded: S. mutans, T. denticola

Reference: patent US20120003661A1, “METHODS AND DEVICES FOR THE SELECTIVE DETECTION OF MICROORGANISMS” (C3 JIAN, INC., priority 2010, published 2012)
